The text below walks through data of patent publication US20190374533A1, “COMPOUNDS AND METHODS FOR INHIBITING NHE-MEDIATED ANTIPORT IN THE TREATMENT OF DISORDERS ASSOCIATED WITH FLUID RETENTION OR SALT OVERLOAD AND GASTROINTESTINAL TRACT DISORDERS” (Ardelyx, Inc., priority 2008, published 2019).

Usually Papp A→B stands for the apparent permeability from the apical to the basolateral side of a cell layer. Low values mean slow passage, high ones fast passage. As a reminder, the AUC is the area under the concentration-time curve, a measure of exposure. A high value points to high exposure. The Cmax is the highest concentration seen after dosing.

T1 sequence (P26433 29-831): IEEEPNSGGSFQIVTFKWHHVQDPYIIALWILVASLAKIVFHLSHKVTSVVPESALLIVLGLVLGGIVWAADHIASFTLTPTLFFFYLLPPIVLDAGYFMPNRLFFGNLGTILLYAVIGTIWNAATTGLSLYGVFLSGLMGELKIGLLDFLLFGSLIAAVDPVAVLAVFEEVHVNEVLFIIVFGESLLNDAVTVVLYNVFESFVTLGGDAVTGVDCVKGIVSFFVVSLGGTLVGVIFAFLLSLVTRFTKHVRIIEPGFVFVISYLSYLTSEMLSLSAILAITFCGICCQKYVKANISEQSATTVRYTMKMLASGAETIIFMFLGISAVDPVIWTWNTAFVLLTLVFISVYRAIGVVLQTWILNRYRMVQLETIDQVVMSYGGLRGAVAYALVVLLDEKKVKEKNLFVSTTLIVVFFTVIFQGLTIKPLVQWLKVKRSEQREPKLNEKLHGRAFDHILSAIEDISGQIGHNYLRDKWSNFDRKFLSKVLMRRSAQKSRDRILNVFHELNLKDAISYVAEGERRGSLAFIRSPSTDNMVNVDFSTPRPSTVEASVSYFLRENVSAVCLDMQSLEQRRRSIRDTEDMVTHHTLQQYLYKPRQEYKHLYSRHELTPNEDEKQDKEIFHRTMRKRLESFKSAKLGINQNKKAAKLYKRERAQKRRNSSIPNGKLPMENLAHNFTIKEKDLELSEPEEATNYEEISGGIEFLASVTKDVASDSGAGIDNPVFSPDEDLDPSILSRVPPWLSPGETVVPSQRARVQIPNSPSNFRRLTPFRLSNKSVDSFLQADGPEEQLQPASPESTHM

Tested on in one data set: not listed separately
As to the kind of experiment: Parallel artificial membrane permeability assay (PAMPA). The conditions noted are these: pH 7.4. (PAMPA measures passive passage across an artificial lipid membrane.)
For the compound `COCCNC(=O)NS(=O)(=O)c1ccc(Oc2c(F)cc(/C=C(\C)C(=O)N=C(N)N)cc2F)cc1` [Example 58, (E)-N-(diaminomethylene)-3-(3,5-difluoro-4-(4-(N-(2-methoxyethylcarbamoyl)sulfamoyl)phenoxy)phenyl)-2-methylacrylamide], the Papp A→B at 3 h, 20 uM was found to be 0.2 ×10⁻⁶ cm/s.
Still for that read-out and setting: in the case of `CN1Cc2c(Cl)cc(Cl)cc2C(c2ccc(S(=O)(=O)N(CCC(=O)O)CCC(=O)O)cc2)C1` (stereo not drawn) [Example 15, 3,3′-(4-(6,8-dichloro-2-methyl-1,2,3,4-tetrahydroisoquinolin-4-yl)phenylsulfonylazanediyl)dipropanoic acid] it was 0.05 ×10⁻⁶ cm/s; in that of `CN1Cc2c(Cl)cc(Cl)cc2C(c2cccc(NC(=O)N[C@@H](CC(=O)O)C(=O)O)c2)C1` (stereo partly drawn) [Example 35, (2S)-2-(3-(3-(6,8-dichloro-2-methyl-1,2,3,4-tetrahydroisoquinolin-4-yl)phenyl)ureido)succinic acid], 0.17 ×10⁻⁶ cm/s.
The same measure, in the same setting: the value for `CN1Cc2c(Cl)cc(Cl)cc2C(c2cccc(S(=O)(=O)NCCCS(=O)(=O)O)c2)C1` (stereo not drawn) [Example 7, 3-(3-(6,8-dichloro-2-methyl-1,2,3,4-tetrahydroisoquinolin-4-yl)phenylsulfonamido)propane-1-sulfonic acid] was 0.5 ×10⁻⁶ cm/s; that for `CN1Cc2c(Cl)cc(Cl)cc2C(c2ccc(S(=O)(=O)Nc3ccc(P(=O)(O)O)cc3)cc2)C1` (stereo not drawn) [Example 76, 4-(4-(6,8-dichloro-2-methyl-1,2,3,4-tetrahydroisoquinolin-4-yl)phenylsulfonamido)phenylphosphonic acid] was 0.2 ×10⁻⁶ cm/s.
The compound `CN1Cc2c(Cl)cc(Cl)cc2C(c2cccc(S(=O)(=O)Nc3ccc(CP(=O)(O)O)cc3)c2)C1` (stereo not drawn) [Example 3, 4-(3-(6,8-dichloro-2-methyl-1,2,3,4-tetrahydroisoquinolin-4-yl)phenylsulfonamido)benzylphosphonic acid] returned a Papp A→B at 3 h, 20 uM of 0.8 ×10⁻⁶ cm/s.
For the compound `CCNC(=O)NS(=O)(=O)c1ccc(Oc2c(F)cc(/C=C(\C)C(=O)N=C(N)N)cc2F)cc1` [Example 74], the apical-to-basolateral permeability (Papp A→B) at 3 h, 20 uM was determined as 0.45 ×10⁻⁶ cm/s.
`C/C(=C\c1cc(F)c(Oc2ccc(S(=O)(=O)NC(=O)NCCN(C)C)cc2)c(F)c1)C(=O)N=C(N)N` [Example 75, (E)-N-(diaminomethylene)-3-(4 (4-(N-(2-(dimethylamino)ethylcarbamoyl)sulfamoyl)phenoxy)-3,5-difluorophenyl)-2-methylacrylamide] came in with an apparent permeability from apical to basolateral (Papp A→B) at 3 h, 20 uM of 0.4 ×10⁻⁶ cm/s.
`CN1Cc2c(Cl)cc(Cl)cc2C(c2cccc(NC(=O)N[C@@H](CCC(=O)O)C(=O)O)c2)C1` (stereo partly drawn) [Example 37, (2S)-2-(3-(3-(6,8-dichloro-2-methyl-1,2,3,4-tetrahydroisoquinolin-4-yl)phenyl)ureido)pentanedioic acid] displayed a Papp A→B at 3 h, 20 uM of 0.1 ×10⁻⁶ cm/s.
As to `CN1Cc2c(Cl)cc(Cl)cc2C(c2ccc(S(=O)(=O)NCc3ccc(CP(=O)(O)O)cc3)cc2)C1` (stereo not drawn) [Example 14, (4-((4-(6,8-dichloro-2-methyl-1,2,3,4-tetrahydroisoquinolin-4-yl)phenylsulfonamido)methyl)phenyl) methylphosphonic acid], the apical-to-basolateral permeability (Papp A→B) at 3 h, 20 uM was 0.4 ×10⁻⁶ cm/s.
In turn, `CN1Cc2c(Cl)cc(Cl)cc2C(c2ccc(S(=O)(=O)NCCOCCOCCNS(=O)(=O)c3ccc(C4CN(C)Cc5c(Cl)cc(Cl)cc54)cc3)cc2)C1` (stereo not drawn) [Example 27, N,N′-(2,2′-(ethane-1,2-diylbis(oxy))bis(ethane-2,1-diyl))bis(4-(6,8-dichloro-2-methyl-1,2,3,4-tetrahydroisoquinolin-4-yl)benzenesulfonamide)] came in with a Papp A→B at 3 h, 20 uM of less than 0.02 ×10⁻⁶ cm/s.
As for `CN1Cc2c(Cl)cc(Cl)cc2C(c2ccc(NC(=O)NCP(=O)(O)O)cc2)C1` (stereo not drawn) [Example 38, (3-(4-(6,8-dichloro-2-methyl-1,2,3,4-tetrahydroisoquinolin-4-yl)phenyl)ureido)methylphosphonic acid], the Papp A→B at 3 h, 20 uM turned out to be 0.1 ×10⁻⁶ cm/s.
On the same count and under the same terms, in the case of `C/C(=C\c1cc(F)c(Oc2ccc(S(=O)(=O)NCCCS(=O)(=O)O)cc2)c(F)c1)C(=O)N=C(N)N` [Example 71, (E)-3-(4-(4-(3-(diaminomethyleneamino)-2-methyl-3-oxoprop-1-enyl)-2,6-difluorophenoxy)phenylsulfonamido)propane-1-sulfonic acid] it was 0.45 ×10⁻⁶ cm/s; in that of `NC(N)=Nc1nc(-c2ccc(N3CCN(CC(=O)O)CC3)cc2)c2cc(Cl)ccc2n1` [Example 61, 2-(4-(4-(6-chloro-2-(diaminomethyleneamino)quinazolin-4-yl)phenyl)piperazin-1-yl)acetic acid], 0.1 ×10⁻⁶ cm/s.
In the case of `C/C(=C\c1cc(F)c(Oc2ccc(S(=O)(=O)NCP(=O)(O)O)cc2)c(F)c1)C(=O)N=C(N)N` [Example 56, (E)-(4-(4-(3-(diaminomethyleneamino)-2-methyl-3-oxoprop-1-enyl)-2,6-difluorophenoxy)phenylsulfonamido)methylphosphonic acid], the Papp A→B at 3 h, 20 uM came to 0.5 ×10⁻⁶ cm/s.
On the same count and under the same terms, the value for `C/C(=C\c1cc(F)c(Oc2ccc(S(=O)(=O)Nc3ccc(P(=O)(O)O)cc3)cc2)c(F)c1)C(=O)N=C(N)N` [Example 51, (E)-4-(4-(4-(3-(diaminomethyleneamino)-2-methyl-3-oxoprop-1-enyl)-2,6-difluorophenoxy)phenylsulfonamido)phenylphosphonic acid] was 0.2 ×10⁻⁶ cm/s; that for `CN1Cc2c(Cl)cc(Cl)cc2C(c2ccc(S(=O)(=O)NCCN(CCNS(=O)(=O)c3ccc(C4CN(C)Cc5c(Cl)cc(Cl)cc54)cc3)CCNS(=O)(=O)c3ccc(C4CN(C)Cc5c(Cl)cc(Cl)cc54)cc3)cc2)C1` (stereo not drawn) [Example 24, N,N′,N″-(2,2′,2″-nitrilotris(ethane-2,1-diyl))tris(4-(6,8-dichloro-2-methyl-1,2,3,4-tetrahydroisoquinolin-4-yl)benzenesulfonamide)] was 0.03 ×10⁻⁶ cm/s; that for `NC(N)=Nc1nc(-c2cccc(N3CCN(CCCC(=O)O)CC3)c2)c2cc(Cl)ccc2n1` [Example 70, 4-(4-(3-(6-chloro-2-(diaminomethyleneamino)quinazolin-4-yl)phenyl)piperazin-1-yl)butanoic acid] was 0.4 ×10⁻⁶ cm/s.
As to `CN1Cc2c(Cl)cc(Cl)cc2C(c2cccc(S(=O)(=O)NCCN(CCNS(=O)(=O)c3cccc(C4CN(C)Cc5c(Cl)cc(Cl)cc54)c3)CCNS(=O)(=O)c3cccc(C4CN(C)Cc5c(Cl)cc(Cl)cc54)c3)c2)C1` (stereo not drawn) [Example 16, N,N′,N″-(2,2′,2″-nitrilotris(ethane-2,1-diyl))tris(3-(6,8-dichloro-2-methyl-1,2,3,4-tetrahydroisoquinolin-4-yl)benzenesulfonamide)], the Papp A→B at 3 h, 20 uM was less than 0.02 ×10⁻⁶ cm/s.
On the same count and under the same terms, the value for `CN1Cc2c(Cl)cc(Cl)cc2C(c2cccc(S(=O)(=O)N(CC(=O)O)CP(=O)(O)O)c2)C1` (stereo not drawn) [Example 8, 2-(3-(6,8-dichloro-2-methyl-1,2,3,4-tetrahydroisoquinolin-4-yl)-N-(phosphonomethyl)phenylsulfonamido)acetic acid] was 0.2 ×10⁻⁶ cm/s.
The same measure, in the same setting: the value for `CN1Cc2c(Cl)cc(Cl)cc2C(c2ccc(NC(=O)N[C@@H](CCC(=O)O)C(=O)O)cc2)C1` (stereo partly drawn) [Example 36] was 0.2 ×10⁻⁶ cm/s.

Another data set addresses T1, rat NHE-3 (Rattus norvegicus, UniProt P26433).
T1 construct: expressed in transfected cells; host or cells: Opossum kidney (OK) cells (ATCC), electroporated
As to the kind of experiment: Cell-based assay of NHE-3 activity (Pharmacological Test Example 1).
Conditions: not given
The essentials:
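Na+-dependent H+ exchange tracked with the pH-sensitive dye BCECF in opossum kidney cells transiently expressing rat NHE-3. Intracellular acidification by NH4Cl prepulse, then 10 min in ammonium- and Na+-free HEPES, pH 7.4, room temperature. Initial rates averaged over 3-6 replicates give pIC50.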
In the case of `CN1Cc2c(Cl)cc(Cl)cc2C(c2cccc(S(=O)(=O)NCCOCCOCCOCCNC(=O)c3ccccc3C(=O)NCCOCCOCCOCCNS(=O)(=O)c3cccc(C4CN(C)Cc5c(Cl)cc(Cl)cc54)c3)c2)C1` (stereo not drawn) [Example 230, N1,N2-bis(2-(2-(2-(2-(3-(6,8-dichloro-2-methyl-1,2,3,4-tetrahydroisoquinolin-4-yl)phenylsulfonamido)ethoxy)ethoxy)ethoxy)-ethyl)phthalamide], the “rat NHE-3 Average pIC50” value is recorded as more than 7.

Staying with this data set, now noted: OK cells expressing rat NHE-3; 0-30 uM test compound, 5 uM EIPA.
In the case of `C/C(=C\c1cc(F)c(Oc2ccc(S(=O)(=O)NCCOCCOCCOCCOCCOCCOCCN)cc2)c(F)c1)C(=O)N=C(N)N` [Example 211, (E)-3-(4-(4-(N-(20-amino-3,6,9,12,15,18-hexaoxaicosyl)sulfamoyl)phenoxy)-3,5-difluorophenyl)-N-(diaminomethylene)-2-methylacrylamide], the “rat NHE-3 Average pIC50” value was in the range of 6 to 7.
For the compound `CN1Cc2c(Cl)cc(Cl)cc2C(c2cccc(S(=O)(=O)NCCOCCOCCOCCOCCOCCOCCOCCOCCOCCOCCNC(=O)CCOCCOCCOCCOCCOCCOCCOCCOCCOCCC(=O)NCCOCCOCCOCCOCCOCCOCCOCCOCCOCCOCCNS(=O)(=O)c3cccc(C4CN(C)Cc5c(Cl)cc(Cl)cc54)c3)c2)C1` (stereo not drawn) [Example 217, N1,N31-bis(32-(3-(6,8-dichloro-2-methyl-1,2,3,4-tetrahydroisoquinolin-4-yl)phenylsulfonamido)-3,6,9,12,15,18,21,24,27,30-decaoxadotriacontyl)-4,7,10,13,16,19,22,25,28-nonaoxahentriacontane-1,31-diamide], the “rat NHE-3 Average pIC50” value lay in the range of 6 to 7.

The data set is the same for the next values; noted with them: OK cells expressing rat NHE-3; 0-30 uM test compound, 5 uM EIPA; read-out: rat NHE-3 Average pIC50 (converted).
`CN1Cc2c(Cl)cc(Cl)cc2[C@H](c2ccc(S(=O)(=O)NCCOCCOCCOCCNC(=O)C(O)C(O)C(=O)NCCOCCOCCOCCNS(=O)(=O)c3ccc([C@@H]4CN(C)Cc5c(Cl)cc(Cl)cc54)cc3)cc2)C1` (single isomer, unassigned) [Example 225, N1,N4-bis(2-(2-(2-(2-(4-((S or R)-6,8-dichloro-2-methyl-1,2,3,4-tetrahydroisoquinolin-4-yl)phenylsulfonamido)ethoxy)ethoxy)ethoxy)ethyl)-2,3-dihydroxysuccinamide]: the IC50 was 100 to 1000 nM.

Tested on in the next data set: not listed separately
As to the kind of experiment: Determination of compound Cmax and AUC. In kind it is in vivo. The conditions noted are these: rat; Sprague-Dawley rats, oral gavage, serum 0.5-4 h; actual oral dose (mg/kg) given. The method, then: Sprague-Dawley rats were orally gavaged with test article (2.5 mg/kg) and serum was collected at 0.5, 1, 2 and 4 h. Serum samples were treated with acetonitrile, precipitated proteins removed by centrifugation and supernatants analyzed by LC/MS/MS and compared against a standard curve to determine compound concentration. All compounds were orally dosed at the dosage shown, and pharmacokinetic parameters determined as described in the text.
Consider `CN1Cc2c(Cl)cc(Cl)cc2[C@H](c2ccc(S(=O)(=O)NCCOCCOCCOCCNC(=O)C(O)C(O)C(=O)NCCOCCOCCOCCNS(=O)(=O)c3ccc([C@@H]4CN(C)Cc5c(Cl)cc(Cl)cc54)cc3)cc2)C1` (single isomer, unassigned) [Example 225, N1,N4-bis(2-(2-(2-(2-(4-((S or R)-6,8-dichloro-2-methyl-1,2,3,4-tetrahydroisoquinolin-4-yl)phenylsulfonamido)ethoxy)ethoxy)ethoxy)ethyl)-2,3-dihydroxysuccinamide], for which the area under the curve (AUC) was less than 5.3 ng·h/mL and the maximum concentration (Cmax) is less than 3.5 ng/mL.
On the same counts, the results for `CN1Cc2c(Cl)cc(Cl)cc2C(c2cccc(S(=O)(=O)NCCOCCOCCOCCNC(=O)c3ccccc3C(=O)NCCOCCOCCOCCNS(=O)(=O)c3cccc(C4CN(C)Cc5c(Cl)cc(Cl)cc54)c3)c2)C1` (stereo not drawn) [Example 230, N1,N2-bis(2-(2-(2-(2-(3-(6,8-dichloro-2-methyl-1,2,3,4-tetrahydroisoquinolin-4-yl)phenylsulfonamido)ethoxy)ethoxy)ethoxy)-ethyl)phthalamide] are less than 5 ng·h/mL and less than 5 ng/mL.
As for `C/C(=C\c1cc(F)c(Oc2ccc(S(=O)(=O)NCCOCCOCCOCCOCCOCCOCCN)cc2)c(F)c1)C(=O)N=C(N)N` [Example 211, (E)-3-(4-(4-(N-(20-amino-3,6,9,12,15,18-hexaoxaicosyl)sulfamoyl)phenoxy)-3,5-difluorophenyl)-N-(diaminomethylene)-2-methylacrylamide], the AUC is less than 3 ng·h/mL and the maximum concentration (Cmax) was less than 2.3 ng/mL.
On the same counts, the results for `CN1Cc2c(Cl)cc(Cl)cc2C(c2cccc(S(=O)(=O)NCCOCCOCCOCCOCCOCCOCCOCCOCCOCCOCCNC(=O)CCOCCOCCOCCOCCOCCOCCOCCOCCOCCC(=O)NCCOCCOCCOCCOCCOCCOCCOCCOCCOCCOCCNS(=O)(=O)c3cccc(C4CN(C)Cc5c(Cl)cc(Cl)cc54)c3)c2)C1` (stereo not drawn) [Example 217, N1,N31-bis(32-(3-(6,8-dichloro-2-methyl-1,2,3,4-tetrahydroisoquinolin-4-yl)phenylsulfonamido)-3,6,9,12,15,18,21,24,27,30-decaoxadotriacontyl)-4,7,10,13,16,19,22,25,28-nonaoxahentriacontane-1,31-diamide] are less than 10 ng·h/mL and less than 10 ng/mL.
